How the values were obtained:
JMJD2C = JMJD2C (Homo sapiens (Human), UniProt Q9H3R0); experiment: In vitro enzyme inhibition assay (JMJD2C TR-FRET); format: biochemical; conditions: 0.3 nM JMJD2C, 300 nM H3K9me3-biotin peptide, 2 μM alpha-ketoglutaric acid
Description: This assay determines the ability of a test compound to inhibit JMJD2C demethylase activity. Baculovirus expressed JMJD2C (GenBank Accession #BC143571, AA 2-372) was purchased from BPS Bioscience (Cat#50105).
The ability of test compounds to inhibit the activity of JMJD2C was determined in 384-well plate-format under the following reaction conditions: 0.3 nM JMJD2C, 300 nM H3K9me3-biotin labeled peptide (Anaspec cat #64360), 2 μM alpha-ketoglutaric acid in assay buffer of 50 mM HEPES, pH 7.3, 0.005% Brij35, 0.5 mM TCEP, 0.2 mg/ml BSA, 50 μM sodium L-ascorbate, and 2 μM ammonium iron(II) sulfate. Reaction product was determined quantitatively by TR-FRET after the addition of detection reagent Phycolink Streptavidin-allophycocyanin (Prozyme) and Europium-anti-di-methylated histone H3 lysine 9 (H3K9me2) antibody (PerkinElmer) in the presence of 5 mM EDTA in LANCE detection buffer (PerkinElmer) at a final concentration of 50 nM and 1 nM, respectively.
The assay reaction was initiated by the following: 2 μl of the mixture of 900 nM H3K9me3-biotin labeled peptide and 6 μM alpha-ketoglutaric acid with 2 μl of 11-point serial diluted inhibitor in 3% DMSO were added to each well of the plate, followed by the addition of 2 μl of 0.9 nM JMJD2C to initiate the reaction. The reaction mixture was incubated at room temperature for 30 min, and terminated by the addition of 6 μl of 5 mM EDTA in LANCE detection buffer containing 100 nM Phycolink Streptavidin-allophycocyanin and 2 nM Europium-anti-H3K9me2 antibody. Plates were read by EnVisionMultilabel Reader in TR-FRET mode (excitation at 320 nm, emission at 615 nm and 665 nm) after 1 hr incubation at room temperature. A ratio was calculated (665/615) for each well and fitted to determine inhibition constant (IC50).
The ability of the compounds disclosed herein to inhibit demethylase activity was quantified and the respective IC50 value was determined. Table 3 provides the IC50 values of various compounds disclosed herein.

[1] = test system: KYSE-150 esophageal carcinoma cell line; experiment: In vitro cell-based assay: BrdU cell proliferation ELISA; set-up: species or system human; conditions: Homo sapiens; KYSE-150 cells, BrdU incorporation after 168 hr of compound incubation; read-out: Cellular IC50
Description: Cell lines tested include the JMJD2C gene amplified cell line KYSE-150. This is a quantitative ELISA assay measuring DNA incorporation of BrdU during S-phase as a direct readout of cellular proliferation.
Assay Principle: This is a colorimetric immunoassay for the quantification of cell proliferation. Cells treated for 168 hr with test compounds are assayed for their ability to go through S-phase as a measure of their proliferative potential.
Assay Method: The human KYSE-150 (SMAD4 mut, TP53 mut) esophageal carcinoma cell line was seeded at 2,000 cells/well on a 96-well tissue culture treated plate. After an overnight incubation, cells were treated with compound in an 11-point dilution series with final concentrations ranging from 100 μM to 2 nM. Cells were then incubated in the presence of compound for 168 hr. After compound incubation the cells were assayed using a BrdU Cell Proliferation ELISA (Roche). The cells were first incubated with BrdU labeling reagent for 2 hr. After 2 hr, the BrdU incorporated cells were fixed and denatured, probed with an anti-BrdU-Peroxidase antibody for 1.5 hr and washed. Finally, a tetramethylbenzidine peroxidase substrate was added to each well for 15 min. followed by a H2SO4 stop solution. The plate was read at 450 nm, and the raw optical density data was transferred into XLFit (IDBS) for IC50 calculation using the formula: fit=(D+((Vmax*(x^n))/((x^n)+(Km^n)))).
Table 4 provides the cellular IC50 values of various compounds disclosed herein.

Chain of JMJD2C (Q9H3R0 2-372): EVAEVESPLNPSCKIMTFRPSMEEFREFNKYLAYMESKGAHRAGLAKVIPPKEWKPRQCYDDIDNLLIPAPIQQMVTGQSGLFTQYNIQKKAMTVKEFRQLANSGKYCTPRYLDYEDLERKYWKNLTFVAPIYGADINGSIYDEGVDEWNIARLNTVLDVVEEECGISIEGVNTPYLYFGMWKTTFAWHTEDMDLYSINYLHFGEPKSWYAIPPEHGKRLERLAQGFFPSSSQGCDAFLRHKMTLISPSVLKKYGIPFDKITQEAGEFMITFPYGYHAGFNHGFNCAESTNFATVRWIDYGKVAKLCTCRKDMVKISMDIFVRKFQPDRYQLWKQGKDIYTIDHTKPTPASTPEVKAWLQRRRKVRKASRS

CN1CCN(c2cc(N(C)c3ccc(Oc4nc(O)c5ccncc5n4)cc3)ccc2OCC(F)(F)F)CC1 [Example 136, -(4-(methyl(3-(4-methylpiperazin-1-yl)-4-(2,2,2-trifluoroethoxy)phenyl)amino)phenoxy)pyrido[3,4-d]pyrimidin-4-ol]
IC50 (JMJD2C): ≤ 100 nM | IC50 [1]: 1000 to 10000 nM

CCc1ccc(N(C)c2ccc(Oc3nc(O)c4ccncc4n3)cc2)c(OC)c1 [Example 137, 2-(4-((4-ethyl-2-methoxyphenyl)(methyl)amino)phenoxy)pyrido[3,4-d]pyrimidin-4-ol]
IC50 (JMJD2C): 100 to 1000 nM | IC50 [1]: > 10000 nM

CCN1CCN(c2cccc(N(C)c3ccc(Oc4nc(O)c5ccncc5n4)cc3)c2)CC1 [Example 138, 2-(4-((3-(4-ethylpiperazin-1-yl)phenyl)(methyl)amino)phenoxy)pyrido[3,4-d]pyrimidin-4-ol]
IC50 (JMJD2C): ≤ 100 nM | IC50 [1]: 1000 to 10000 nM

CN1CCC(c2cccc(N(C)c3ccc(Oc4nc(O)c5ccncc5n4)cc3)c2)CC1 [Example 140, 2-(4-(methyl(3-(1-methylpiperidin-4-yl)phenyl)amino)phenoxy)pyrido[3,4-d]pyrimidin-4-ol]
IC50 (JMJD2C): ≤ 100 nM | IC50 [1]: 100 to 1000 nM

CCN(c1ccc(Oc2nc(O)c3ccncc3n2)cc1)c1cccc(N2CCN(C)CC2)c1 [Example 141, 2-(4-(ethyl(3-(4-methylpiperazin-1-yl)phenyl)amino)phenoxy)pyrido[3,4-d]pyrimidin-4-ol]
IC50 (JMJD2C): ≤ 100 nM | IC50 [1]: ≤ 100 nM
